Structures are written as SMILES.

The text below walks through data of PubChem BioAssay AID463099 (The Scripps Research Institute Molecular Screening Center, 2010).

The subject of this experiment is IMP-1-expressing E. coli growth, with imipenem, MIC. Briefly: growth inhibition of IMP-1-expressing E. coli, late-stage follow-up, counter-screen for IMP-1/VIM-2 inhibitor project, imipenem co-treatment, MIC (AID 463099). (In general: The purpose of a counterscreen is to sort out artefacts and off-target activity.)

What is called MIC is the smallest concentration in the dilution series that meets the test's criterion for growth inhibition. As for `COc1cccc[c]1[Hg+]`, the MIC was 1.09 µM. To `O=C(O)c1ccc[c]([Hg+])c1` belongs 3.75 µM. To `O=C(O)c1cc[c]([Hg][Cl])cc1` belongs 9.38 µM. For the molecule `[Hg+][c]1ccccc1`, the MIC is 0.63 µM.

Take `CC(=O)Nc1cc[c]([Hg+])cc1`: the MIC was 2.5 µM. Consider `Cc1cc[c]([Hg+])cc1`, for which the MIC is 0.94 µM.
